Source: ChEMBL document CHEMBL3507680, “University of Dundee, Gates Library screen for HepG2 cell viability”

Experiment: Human HepG2 cell viability assay in 384 well format
Assay type: toxicity, cell-based
Design: dose 125 nL, time 70.5 hour; concentration not given beside the values
Details: HepG2 cells, read-out: Inhibition

Compound	cytotoxicity at 70.5 h
Clc1cccc(C(CNCc2ccccn2)N2CCOCC2)c1 (configuration not stated)	48.6%
CCOC1CCCN(C(=O)CCOc2ccc(C)cc2OC)C1 (configuration not stated)	24.8%
CNS(=O)(=O)c1ccc(F)c(C(=O)NCc2ccnc(OC)c2)c1	25.8%
CC(C)CC(=O)N1CCC2(CC1)OCCO2	-6.38%
CC(C)C(C)NC(=O)CNc1cc2c(cc1Cl)NC(=O)CO2 (configuration not stated)	6.71%
CC(NC(=O)CNc1cc2c(cc1Cl)OCCO2)c1ccco1 (configuration not stated)	-8.18%
COc1ccc(-c2nc(CCNC(=O)NC3CCC(O)CC3)co2)cc1 (configuration not stated)	17.3%
CCN(C)c1cc(CNC(=O)CNC(=O)CC2CCCCC2)ccn1	-16.4%
Clc1cccc(C(CNc2ncccn2)N2CCOCC2)c1 (configuration not stated)	-5.68%
CCc1[nH]c(C2(N)CCCCC2)nc(=O)c1C	-4.64%
CCc1[nH]c(C2(N)CCCC2)nc(=O)c1C	19.5%
CCOC1CCN(C(=O)NCc2cccc(-n3cccn3)c2)CC1	-5.08%
NC(=O)CC1CCN(C(=O)NCc2cccc(-n3cccn3)c2)CC1	-1.91%
CCSCc1csc(-c2ccc(S(C)(=O)=O)cc2)n1	-2.67%
COc1ccc(Cl)cc1CCNC(=O)NCc1ncnn1C	-13.1%
COc1cc(C)ccc1OCC(=O)NS(=O)(=O)c1cccnc1	-3.71%
CC(C)(C)c1nccc(N2CCCCC2CCNS(C)(=O)=O)n1 (configuration not stated)	2.95%
CCc1noc(Cn2c(=O)c3c(C(F)(F)F)cc(C)nc3n2C)n1	19.2%
CCS(=O)(=O)NCC(=O)NC(c1cc(C)sc1C)C(C)C (configuration not stated)	-0.761%
Cc1cc(Cn2c(=O)c3c(C(F)(F)F)cc(C)nc3n2C)on1	-3.01%
COc1cccc(OC)c1CC(=O)NC(C#N)c1ccsc1 (configuration not stated)	-12.5%
N#CC(NC(=O)CNC(=O)c1ccccc1)c1ccsc1 (configuration not stated)	-3.11%
Cc1cc(C(NC(=O)CNS(C)(=O)=O)C(C)C)c(C)s1 (configuration not stated)	1.39%
COc1cc(C)ccc1OCCC(=O)N1CCCC(n2cncn2)C1 (configuration not stated)	-9.18%

Compound	cytotoxicity at 70.5 h
CC(C)COc1cncc(N2CCCN(CC(F)(F)F)CC2)n1	-5.33%
Cc1nc2n(n1)CC(NCc1c(Cl)ccc3cccnc13)CC2 (configuration not stated)	-9.95%
O=S(=O)(NCCc1cn2ccccc2n1)N1CCOCC1	-7.24%
CC(NC(=O)N1CCCCCC1)c1ccc(S(N)(=O)=O)cc1 (configuration not stated)	-7.46%
CC(NC(=O)N1CCC1)c1ccc(S(N)(=O)=O)cc1 (configuration not stated)	-7.27%
Cc1noc(C2CCN(Cn3cc(Cl)cn3)CC2)n1	-4.35%
CC(NC(=O)N1CCCN(C)CC1)c1ccc(S(N)(=O)=O)cc1 (configuration not stated)	-4.13%
NC(=O)C1CCN(c2ccc(C(=O)N3CCc4ccccc43)cn2)C1 (configuration not stated)	-4.05%
COc1ccc(CCNC(=O)c2ccc(=O)n(C)c2)c(Cl)c1	-7.56%
CC(CC(=O)c1ccccc1)NC(=O)c1ccon1 (configuration not stated)	-5.06%
CCOc1ccc(Cl)cc1CCNC(=O)Cn1nc(C)ccc1=O	7.64%
NC(=O)[C@@H]1Cc2ccccc2N1C(=O)C1CC(c2ccccc2)=NO1 (some centres not stated)	6.72%
CC(C)COc1cncc(N2CCCN(c3ncccn3)CC2)n1	-7.71%
CC(C)n1ccc(C(=O)OCC2CC(=O)N(Cc3ccccc3)C2)n1 (configuration not stated)	-8.67%
O=C(CNC(=O)c1ccc(Cl)cc1)Nc1nccs1	20.2%
CC(C)N1CCC(NC(=O)NCc2ccccc2)CC1	-0.0959%
Cn1c(SCc2noc(C(C)(C)C)n2)nnc1C1CCS(=O)(=O)C1 (configuration not stated)	-7.06%
CC(C)CN1CCC(NC(=O)NCCC(=O)NCc2ccccc2)CC1	-2.46%
Cc1noc(C)c1CS(=O)(=O)CC(=O)NCCc1ccccc1	15.9%
COCCCC(=O)Nc1[nH]nc(-c2ccncc2)c1C	-3.19%
CC(C)(CNC(=O)C1CCCN(C(N)=O)C1)c1cccc(Cl)c1 (configuration not stated)	9.61%
NC(=O)Nc1cccc(CNC(=O)CCCOCc2ccccc2)c1	2.63%
CCc1[nH]ncc1C(=O)N1CCN(c2nccc(OC)n2)CC1	-3.61%
Cc1nc2n(n1)CC(NCc1ccccc1OCC(=O)N(C)C)CC2 (configuration not stated)	-3.73%

Compound	cytotoxicity at 70.5 h
Cn1nc2c(cc1=O)CN(CCCOc1ccc(C#N)cc1)CC2	-5.17%
CC(C)N1CCC(NC(=O)NCc2cccnc2)C1 (configuration not stated)	-1.38%
Cc1ccccc1C(=O)NCCC(=O)NS(=O)(=O)c1cccnc1	19.3%
O=C(CCNC(=O)NC1CCN(C2CC2)CC1)NCc1ccccc1	-3.29%
OCCN(Cc1cccnc1)c1ccc(Cl)cn1	-2.8%
CCc1nc2n(n1)CC(NCc1ccccc1OCC(=O)NC)CC2 (configuration not stated)	-2.9%
COC(=O)c1oc(CNC(C)(C)c2ccc3c(c2)OCCO3)cc1C	20.9%
CC(C)c1cc(C(=O)N2CCN(Cc3ccc(C#N)cc3)CC2)n[nH]1	-4.18%
COc1ccnc(N2CCN(C(=O)c3csc(C)n3)CC2)n1	-4.93%
COc1ccnc(N2CCN(C(=O)c3csnn3)CC2)n1	-3.32%
Cc1cc2n(n1)CC(CNC1CCN(CCc3ccccc3)CC1)CN2 (configuration not stated)	0.368%
CCOc1cc(C)ccc1NS(=O)(=O)c1cc(C)c(C(=O)O)s1	-1.53%
Cc1nc(CN2CCC(CNC(=O)C3(C)CCCC3)CC2)oc1C	-4.66%
CC(NC(=O)Nc1ccccc1CN1CCOCC1)c1nccs1 (configuration not stated)	-2.17%
Cc1ccsc1C(=O)NC1CCN(c2cnn(C)c2)C1=O (configuration not stated)	17.9%
Cn1cc(N2CCC(NC(=O)c3ccccc3Cl)C2=O)cn1 (configuration not stated)	1.26%
Cn1cc(N2CCC(NC(=O)c3c(F)cccc3Cl)C2=O)cn1 (configuration not stated)	-3.25%
CSC(C)(C)CNC(=O)NCc1cccc(-n2cncn2)c1	-0.656%
Cc1nc(CN2CCC(CNC(=O)C3CCOC3)CC2)oc1C (configuration not stated)	16.3%
CCC(CC)c1cc(CNC(=O)N2CCCN(C(C)=O)CC2)on1	-3.25%
Cc1noc(CCCC(=O)NC(C)c2nnc3n2CCC3)n1 (configuration not stated)	-4.98%
CCN1CCN(c2ccc(F)cc2C(C)NCc2cscn2)CC1 (configuration not stated)	-3.66%
COCc1nc(C(=O)N2CCN(c3nccc(OC)n3)CC2)cs1	14.1%
O=C(CCNC(=O)c1sccc1-c1ccccc1)NC1CCS(=O)(=O)C1 (configuration not stated)	-9.28%

Compound	cytotoxicity at 70.5 h
O=C(CNc1cc2c(cc1Cl)OCCO2)NCC(F)(F)F	-3.78%
O=C1CC2(CCCCC2)C(=O)N1CC(O)COCc1ccccc1F (configuration not stated)	-4.1%
CCN(CC(=O)NC)S(=O)(=O)N1CCCCC1	-7.25%
CCN1CCC(NC(=O)Cn2cc(C)c3ccccc32)CC1	8.33%
Cc1cn(CC(=O)NC2CCC3(CC2)OCCO3)c2ccccc12	-6.58%
O=C(Nc1cccc(N2CCN(CC3CC3)CC2)c1)N1CCCC1	0.629%
CC(=O)NCCC(=O)Nc1cccc(N2CCN(CC3CC3)CC2)c1	-0.54%
CSCC(C)(O)CNC(=O)c1ccc(F)cc1Cl (configuration not stated)	0.551%
Cc1cnc(NC(=O)N2CCC(N3CCCCC3=O)CC2)s1	-1.3%
OC(CN(Cc1ccccc1)Cc1ccccn1)c1cccs1 (configuration not stated)	-11%
OC(CN(Cc1ccccc1)Cc1cscn1)c1cccs1 (configuration not stated)	-2.62%
Cc1nc(C)c(C(=O)NCC(c2ccccc2Cl)N2CCOCC2)s1 (configuration not stated)	19.6%
Cc1cc(C(=O)NCC(c2ccccc2Cl)N2CCOCC2)on1 (configuration not stated)	-1.66%
Cc1[nH]ncc1CCCNC(=O)Nc1ccc(S(C)(=O)=O)nc1	10.3%
O=C(c1cccnc1-n1cncn1)N1CCN(CC(F)(F)F)CC1	-0.957%
Cc1nnc(NCC2(c3ccccc3)CCOCC2)c(C#N)c1C	16.6%
CNC(=O)COc1nc(C(C)(C)C)no1	3.09%
CN(Cc1noc(C(C)(C)C)n1)CC1CCN(CCO)CC1	-3.04%
CCOCC(O)CN1CCN(C(=O)c2ccncc2)CC1 (configuration not stated)	-3.55%
Cc1ccc(C(=O)NCC2(O)CCOCC2)cc1F	-1.08%
COc1ccccc1C1(CNc2nnc(C)c(C)c2C#N)CCCC1	2.69%
CCN(CC(C)C#N)C(=O)CSc1ccc(C(F)(F)F)cn1 (configuration not stated)	-3.1%
CC(C)CC(=O)NCc1cccc(OCCN(C)C2CCOCC2)c1	-4.5%
CN1CCCN(C(=O)NCCNc2ncccc2C#N)CC1	-2.49%

Compound	cytotoxicity at 70.5 h
CC(C)COC(=O)N1CCCN(Cc2nnc(C(C)(C)C)o2)CC1	-4.02%
CN(Cc1ccc(C#N)cc1)C(=O)c1ccnc(OC2CCC2)c1	16.3%
Cc1ccc(CN(C)C(=O)CN2CCCCC2Cn2cncn2)o1 (configuration not stated)	17.9%
CCOCC(O)CN1CCN(C(=O)c2ccsc2)CC1 (configuration not stated)	17.1%
Cc1cc2n(n1)CC(CNCCNC(=O)c1ccc(F)cc1)CN2 (configuration not stated)	-4.35%
CC(C)c1noc(CNC2CCCN(Cc3noc(C4CC4)n3)C2)n1 (configuration not stated)	-11.4%
Cc1csc(CN(C)C(=O)Nc2cnn(CC3CCCO3)c2)n1 (configuration not stated)	-12.7%
CN1CCC(CN(C)S(=O)(=O)CC2CCCCC2)CC1	11.1%
O=C(CC1=CCCCC1)Nc1ccc(CN2C(=O)CCC2=O)cc1	-3.73%
CC(C)N1CCC(Nc2ccn(C)n2)C1=O (configuration not stated)	-3.38%
CCC1c2ccccc2CCN1C(=O)c1ccc(OC)nn1 (configuration not stated)	-0.324%
Cn1ccc(C(=O)N(CC(F)F)c2cccc(Cl)c2)cc1=O	-2.11%
CN1CCCC(N2CCN(c3nc4ccccn4c3C#N)CC2)C1 (configuration not stated)	11.1%
CS(=O)(=O)CCN(Cc1cccc(O)c1)C1CCC(O)CC1 (configuration not stated)	-4.64%
CCC1c2ccccc2CCN1C(=O)c1ccnc(C(=O)OC)c1 (configuration not stated)	-1.37%
CN(Cc1cnn(C)c1)S(=O)(=O)N1CCCC1c1ccco1 (configuration not stated)	-0.954%
Cc1cnn(CC2CCCCN2C(=O)c2ccc(C#N)c(C)n2)c1 (configuration not stated)	-0.947%
COc1ccnc(N(C)Cc2ccccc2OC(F)(F)F)n1	-1.49%
Cc1cc(C(=O)N2CCCC(N3CCCCCC3)C2)nn1C(C)(C)C (configuration not stated)	16.8%
NCc1ccc(Oc2ccc(F)c(F)c2)cc1C(F)(F)F	-0.173%
c1cc(CNCc2ccnc(N3CCCC3)c2)c2c(c1)OCCO2	5.3%
